Source: patent US10017481B2, “Conformationally constrained, fully synthetic macrocyclic compounds” (POLYPHOR AG, priority 2012, dated 2018)

Experiments:
Assay type in all cases: in vitro ADME
[1] = Plasma stability assay, CD-1 mouse plasma; conditions: for Plasma Stability 240 min mouse/(rat) [% remain.]: CD-1 mouse plasma, 10 μM, 37° C.; for half-life at 10 μM: both sexes, CD-1, mouse
Method: (§1) 5. Plasma and Metabolic Stability Assays Example compounds were dissolved in DMSO/H2O 90:10 to a final concentration of 10 mM for plasma stability determination and metabolic stability determination. The assays were conducted according to literature precedents (F. P. Guengerich, Analysis and Characterization of Enzymes; in: Principles and Methods of Toxicology, A. W. Hayes (Ed.) Raven Press: New York, 1989, 777-813; R. Singh et al., In vitro metabolism of a potent HIV-protease inhibitor (141W94) using rat, monkey and human liver S9, Rapid Commun. Mass Spectrom. 1996, 10, 1019-1026). Plasma Stability Assay Human plasma (Blutspendedienst SRK, Basel) and CD-1 mouse plasma (mixed gender pool >50 animals, Innovative Research, Calif., USA) are both sodium citrate stabilized. The assay is performed in triplicates at 10 μM compound concentration and 37° C. Samples are taken at 0, 15, 30, 60, 120 and 240 minutes and stopped by precipitation with 3 volumes of acetonitrile/formic acid 98:2 and shaking (2 minutes, 600 rpm) followed by filtration (−20 mm Hg). The filtrate is collected. The filtrate (100 μL) is evaporated and reconstituted in the suitable solvent (cf. Table 33) to be analyzed by HPLC/MS/MS. The resulting peak area counts are expressed in percent of the 0 value and used to determine the endpoint stability in % and the half life T in minutes. In order to monitor assay integrity the degradation of propantheline is assayed with every experimental set.

[2] = Metabolic stability assay, human liver microsomes; conditions: for half-life at 10 μM: both sexes, liver microsomes, 1 mg/ml protein, read-out: Metabolic Stability T ½ [min] hum; for half-life at 10 μM / Metabolic Stability 60 min hum [% remain.]: human microsomes, 37° C., 10 μM
Method: (§2) 5. Plasma and Metabolic Stability Assays
(§3) Example compounds were dissolved in DMSO/H2O 90:10 to a final concentration of 10 mM for plasma stability determination and metabolic stability determination.
(§4) The assays were conducted according to literature precedents (F. P. Guengerich, Analysis and Characterization of Enzymes; in: Principles and Methods of Toxicology, A. W. Hayes (Ed.) Raven Press: New York, 1989, 777-813; R. Singh et al., In vitro metabolism of a potent HIV-protease inhibitor (141W94) using rat, monkey and human liver S9, Rapid Commun. Mass Spectrom. 1996, 10, 1019-1026).
(§5) Metabolic Stability Assay
(§6) Microsomes from a human 50 donor mixed gender pool and 1:1 mixtures of microsomes from CD-1 mouse single-gender pools are purchased from Celsis (Belgium). The enzymatic reaction is performed in a buffer containing an NADPH regeneration system and microsomes with the following end concentrations: 100 mM potassium phosphate buffer (all from Sigma), 1 mg/mL glucose-6-phosphate, 1 mg/mL β-nicotinamide adenine dinucleotide phosphate (NADP), 0.65 mg/mL magnesium chloride, 0.8 units/mL of glucose-6-phosphate dehydrogenase (prediluted with 5 mM citrate buffer), 10 μM compound and 1 mg/ml microsomal protein. Compounds are incubated at 37° C. in duplicates and samples are taken after 0, 5, 10, 20 and 60 minutes. After acetonitrile precipitation (3 volumes), shaking (2 minutes, 600 rpm) followed by centrifugation (10 minutes, 3200 g), the supernatant is dried reconstituted in the suitable solvent (cf. Table 33) and analyzed by HPLC/MS/MS. Metabolic turnover is expressed in % of the initial 0 minutes value and half life T½ (min) is calculated. Verapamil for human and propranolol for mouse are used as reference and are assayed with every experimental set.

[3] = Plasma stability assay, human plasma; conditions: for Plasma Stability 240 min hum [% remain.]: human plasma, 10 μM, 37° C.
Method: as §1

[4] = Metabolic stability assay, CD-1 mouse microsomes; conditions: for Metabolic Stability 60 min mouse/(rat) [% remain.] / half-life at 10 μM: CD-1 mouse microsomes, 10 μM, 37° C.; for half-life at 10 μM: both sexes, 1 mg/ml protein, read-out: Metabolic Stability T ½ [min] mouse/(rat)
Method: as §2, §3, §4, §5, §6

| Compound | Plasma Stability 240 min mouse/(rat) [% remain.] [1] | half-life at 10 μM ([1]; plasma) | half-life at 10 μM [2] | Metabolic Stability 60 min hum [% remain.] [2] | Plasma Stability 240 min hum [% remain.] [3] | half-life at 10 μM ([3]; human, plasma) | Metabolic Stability 60 min mouse/(rat) [% remain.] [4] | half-life at 10 μM [4] | Plasma Stability T ½ [min] mouse/(rat) ([1]; plasma) | Metabolic Stability T ½ [min] hum ([2]; human, microsomes) | Plasma Stability T ½ [min] hum ([3]; human, plasma) | Metabolic Stability T ½ [min] mouse/(rat) ([4]; microsomes) |
| --- | --- | --- | --- | --- | --- | --- | --- | --- | --- | --- | --- | --- |
| COc1ccc2c(c1)-c1cccc(c1)C(=O)N(C)[C@H](C(=O)Nc1ccccc1)CCC(=O)N[C@H](C)CO2 [Ex. 45, (10R,15S)-4-methoxy-10,16-dimethyl-12,17-dioxo-N-phenyl-8-oxa-11,16-diazatricyclo[16.3.1.0^2,7]docosa-1(22),2,4,6,18,20-hexaene-15-carboxamide] | 46 % remain. | 3.17 h | > 60 min | 66 % remain. | 76 % remain. | > 4 h | 73 % remain. | > 60 min | – | – | – | – |
| COc1ccc2c(c1)-c1cccc(c1)C(=O)N(C)[C@H](C(=O)N1CCCC1)CCC(=O)N[C@H](C)CO2 [Ex. 46, (10R,15S)-4-methoxy-10,16-dimethyl-15-(1-pyrrolidinylcarbonyl)-8-oxa-11,16-diazatricyclo[16.3.1.0^2,7]docosa-1(22),2,4,6,18,20-hexaene-12,17-dione] | 78 % remain. | > 4 h | 32 min | 26 % remain. | 100 % remain. | > 4 h | 71 % remain. | > 60 min | – | – | – | – |
| COc1ccc2c(c1)-c1cccc(c1)C(=O)N(C)[C@H](C(=O)NCCN(C)C)CCC(=O)N[C@H](C)CO2 [Ex. 47, (10R,15S)-N-[2-(dimethylamino)ethyl]-4-methoxy-10,16-dimethyl-12,17-dioxo-8-oxa-11,16-diazatricyclo[16.3.1.0^2,7]docosa-1(22),2,4,6,18,20-hexaene-15-carboxamide] | 86 % remain. | > 4 h | > 60 min | 83 % remain. | 99 % remain. | > 4 h | 100 % remain. | > 60 min | – | – | – | – |
| COc1ccc2c(c1)-c1cccc(c1)C(=O)N(C)[C@H](C(=O)NCCCN)CCC(=O)N[C@H](C)CO2 [Ex. 49, (10R,15S)-N-(3-aminopropyl)-4-methoxy-10,16-dimethyl-12,17-dioxo-8-oxa-11,16-diazatricyclo[16.3.1.0^2,7]docosa-1(22),2,4,6,18,20-hexaene-15-carboxamide] | 76 % remain. | > 4 h | > 60 min | 100 % remain. | 95 % remain. | > 4 h | 92 % remain. | > 60 min | – | – | – | – |
| COCCNC(=O)[C@@H]1CCC(=O)N[C@H](C)COc2ccc(OC)cc2-c2cccc(c2)C(=O)N1C [Ex. 51, (10R,15S)-4-methoxy-N-(2-methoxyethyl)-10,16-dimethyl-12,17-dioxo-8-oxa-11,16-diazatricyclo[16.3.1.0^2,7]docosa-1(22),2,4,6,18,20-hexaene-15-carboxamide] | 80 % remain. | > 4 h | > 60 min | 71 % remain. | 100 % remain. | > 4 h | 69 % remain. | > 60 min | – | – | – | – |
| COc1ccc2c(c1)-c1cccc(c1)C(=O)N(C)[C@H](C(=O)NC1CC1)CCC(=O)N[C@H](C)CO2 [Ex. 52, (10R,15S)-N-cyclopropyl-4-methoxy-10,16-dimethyl-12,17-dioxo-8-oxa-11,16-diazatricyclo[16.3.1.0^2,7]docosa-1(22),2,4,6,18,20-hexaene-15-carboxamide] | 95 % remain. | > 4 h | > 60 min | 100 % remain. | 99 % remain. | > 4 h | 78 % remain. | > 60 min | – | – | – | – |
| COc1ccc2c(c1)-c1cccc(c1)C(=O)N(C)[C@H](C(=O)NCC(C)C)CCC(=O)N[C@H](C)CO2 [Ex. 54, (10R,15S)-N-isobutyl-4-methoxy-10,16-dimethyl-12,17-dioxo-8-oxa-11,16-diazatricyclo[16.3.1.0^2,7]docosa-1(22),2,4,6,18,20-hexaene-15-carboxamide] | 100 % remain. | > 4 h | > 60 min | 60 % remain. | 100 % remain. | > 4 h | 82 % remain. | > 60 min | – | – | – | – |
| COc1ccc2c(c1)-c1cccc(c1)C(=O)N(C)[C@H](C(=O)NCC(=O)O)CCC(=O)N[C@H](C)CO2 [Ex. 57, 2-({[(10R,15S)-4-methoxy-10,16-dimethyl-12,17-dioxo-8-oxa-11,16-diazatricyclo[16.3.1.0^2,7]docosa-1(22),2,4,6,18,20-hexaen-15-yl]carbonyl}amino)acetic acid] | 74 % remain. | > 4 h | > 60 min | 100 % remain. | 100 % remain. | > 4 h | 100 % remain. | > 60 min | – | – | – | – |
| COc1ccc2c(c1)-c1cccc(c1)C(=O)N(C)[C@H](C(=O)N(C)CCN(C)C)CCC(=O)N[C@H](C)CO2 [Ex. 59, (10R15S)-N-[2-(dimethylamino)ethyl]-4-methoxy-N,10,16-trimethyl-12,17-dioxo-8-oxa-11,16-diazatricyclo[16.3.1.0^2,7]docosa-1(22),2,4,6,18,20-hexaene-15-carboxamide] | – | – | – | – | – | – | – | – | >240 min | >60 min | >240 min | >60 min |
